In publication PMC12015381, “Target Agnostic Photoaffinity Labelling by Sulfonylhydrazones” (Angewandte Chemie (International Ed. in English), 2025):

Key:
[1] = target: T1, STAT5b (Signal transducer and activator of transcription 5b) (Homo sapiens, UniProt P51692); experiment: covalent photolabelling by tryptic digestion and LC-MS/MS; STAT5b inhibition assay with irradiation (no inhibition under […] without irradiation); assay type: binding
T1 sequence (P51692 1-787): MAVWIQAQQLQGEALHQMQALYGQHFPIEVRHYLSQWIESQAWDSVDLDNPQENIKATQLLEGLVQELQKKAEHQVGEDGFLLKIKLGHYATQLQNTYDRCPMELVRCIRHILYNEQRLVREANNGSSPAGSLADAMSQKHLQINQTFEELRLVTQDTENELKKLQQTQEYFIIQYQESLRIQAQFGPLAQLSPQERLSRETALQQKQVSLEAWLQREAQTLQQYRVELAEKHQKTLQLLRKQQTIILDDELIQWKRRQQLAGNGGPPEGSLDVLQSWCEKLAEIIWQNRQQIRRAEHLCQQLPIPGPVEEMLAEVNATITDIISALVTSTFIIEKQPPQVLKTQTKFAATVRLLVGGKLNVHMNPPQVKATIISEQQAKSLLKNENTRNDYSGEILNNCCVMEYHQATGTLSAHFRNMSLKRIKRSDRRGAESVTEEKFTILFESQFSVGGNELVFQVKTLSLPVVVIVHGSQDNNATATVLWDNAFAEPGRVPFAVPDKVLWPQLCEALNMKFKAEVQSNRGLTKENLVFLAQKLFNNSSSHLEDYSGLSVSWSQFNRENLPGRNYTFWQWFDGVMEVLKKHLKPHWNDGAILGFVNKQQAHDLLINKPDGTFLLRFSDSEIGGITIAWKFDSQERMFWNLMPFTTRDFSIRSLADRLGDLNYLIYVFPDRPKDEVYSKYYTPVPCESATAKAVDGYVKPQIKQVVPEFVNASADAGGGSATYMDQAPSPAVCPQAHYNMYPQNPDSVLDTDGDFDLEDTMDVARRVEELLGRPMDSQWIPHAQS

[2] = target: acetylcholine esterase (AChE) (Electrophorus electricus, UniProt O42275); experiment: biochemical enzyme inhibition assay after photoactivation at […] nm (no inhibition without irradiation); covalent labelling by enzymatic digestion and MS
Chain of acetylcholine esterase (AChE) (O42275 24-633): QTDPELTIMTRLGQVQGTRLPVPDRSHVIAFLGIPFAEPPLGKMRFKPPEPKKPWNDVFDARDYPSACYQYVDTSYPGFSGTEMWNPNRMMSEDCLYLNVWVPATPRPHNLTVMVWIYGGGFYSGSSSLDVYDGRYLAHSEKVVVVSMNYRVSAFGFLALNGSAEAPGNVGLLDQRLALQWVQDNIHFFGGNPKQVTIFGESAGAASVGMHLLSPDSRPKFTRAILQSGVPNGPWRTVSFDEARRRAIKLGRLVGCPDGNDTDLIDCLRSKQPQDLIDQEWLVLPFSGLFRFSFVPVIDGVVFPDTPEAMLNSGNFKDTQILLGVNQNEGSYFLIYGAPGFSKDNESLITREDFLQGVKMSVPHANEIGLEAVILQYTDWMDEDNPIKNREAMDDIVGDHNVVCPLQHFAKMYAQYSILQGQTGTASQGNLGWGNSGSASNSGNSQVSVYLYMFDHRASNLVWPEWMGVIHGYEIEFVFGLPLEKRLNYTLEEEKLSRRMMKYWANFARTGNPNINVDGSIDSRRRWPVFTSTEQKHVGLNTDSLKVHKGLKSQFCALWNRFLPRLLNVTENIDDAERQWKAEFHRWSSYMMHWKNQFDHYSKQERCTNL

| IC50 [1] [µM] | Structure (SMILES) | IC50 [2] [µM] |
| --- | --- | --- |
| 24.1 | O=c1c(/C=N/NS(=O)(=O)c2cccnc2)coc2ccccc12 [compound 10, 10] | – |
| – | COc1cc2c(cc1OC)C(=NNS(=O)(=O)c1ccc(C)cc1)C(CC1CCN(Cc3ccccc3)CC1)C2 (centres unmarked) [compound 12, donepezil-tosylhydrazone] | 0.379 |
